The values that follow come from US20250101062A1, “ANTIMICROBIAL PEPTIDES” (Board of Regents of the University of Nebraska, priority 2023, published 2025).

Common to all, as to assay type: cell-based, Staphylococcus aureus
In test [1] the test system is S. aureus USA300 LAC. As to the kind of experiment: microbe, parasite or virus in culture. In short, it runs like this:
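Broth microdilution with twofold peptide dilutions, using exponential-phase bacteria at about 10^5 CFU/mL in MHB, incubated overnight at 37 °C and read at OD600. MIC, reported as a range, is the peptide concentration with no growth. Some tests used diluted MHB/TSB/LB, adjusted pH, or added NaCl or human serum.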

The test system of test [2] is MRSA USA300. As to the kind of experiment: Membrane permeabilization (propidium iodide). How it is done: The peptide ladder was prepared as described for the antibacterial assay with 10 μL of solution in a black COSTAR® 96-well plate. PI (MP Biomedicals, Solon, OH) was prepared in the dark and dissolved in dimethylsulfoxide (Thermo Fisher Scientific, NY) to 20 mM. This PI stock solution was further diluted to 1 mM with water, and 2 μL of 1 mM PI was added to each well. Exponential-phase MRSA USA300 was diluted to OD600 0.11 with TSB, and 88 μL was added to each well. The plate was incubated at 37° C. with continuous shaking in a FLUOstar® Omega (BMG LABTECH, NC) microplate reader. The sample was read every 5 minutes for 24 cycles with excitation and emission wavelengths of 584 and 620 nm, respectively.
Bacterial membrane permeation was conducted (Yeaman, et al. (1998) J. Clin. Invest., 101(1):178-87). In brief, the peptide ladder was prepared as described for the antibacterial assay with 10 μL in a black COSTAR 96-well plate. Propidium iodide (PI) (MP Biomedicals, Solon, OH) was prepared in the dark and dissolved in DMSO (Thermo Fisher Scientific, NY) to 20 mM. This PI stock solution was further diluted to 1 mM with water and 2 μL of 1 mM PI was added to each well. Exponential phase MRSA USA300 or P. aeruginosa E411-17 was diluted to OD600 0.11 with tryptic soy broth (TSB) and 88 μL was added to each well. The plate was incubated at 37° C. with continuous shaking in a FLUOstar® Omega (BMG LABTECH, NC) microplate reader. The sample was read every 5 minutes for 24 cycles with excitation and emission wavelengths at 584 nm and 620 nm, respectively.

In test [3] the test system is MRSA USA300. As to the kind of experiment: Membrane depolarization (DiBAC4(3)). How it is done:
An overnight culture of MRSA USA300 was inoculated into TSB and grown to an exponential phase. Bacteria were washed with 1×PBS, resuspended in twice the volume of 1×PBS containing 25 mM glucose, and incubated at 37° C. for 15 minutes. Then, 500 nM (final concentration) of DiBAC4 (3) bis(1, 3-dibutylbarbituric acid) trimethine oxonol (ANASPEC, CA) was added, and the mixture was vortexed gently. Aliquots of 90 μL of the energized bacteria solution were loaded into the 96-well plates (Corning COSTAR, AZ) and placed in a FLUOstar® Omega microplate reader (BMG LABTECH, NC). Fluorescence was read for 20 minutes at excitation and emission wavelengths of 485 and 520 nm, respectively. Then, 10 μL of peptide solutions was added, and fluorescence readings were recorded for 40 minutes. Triton® X-100 (0.1%) was used as the positive control.
Bacterial membrane depolarization was conducted (Marks, et al. (2013) PLoS One 8(5):e63158). […] Aliquots of 90 μL of the energized bacteria solution were loaded to the 96 well plates (Corning COSTAR, AZ) and placed in a FLUOstar® Omega microplate reader (BMG LABTECH, NC). Fluorescence was read for 20 minutes at excitation and emission wavelengths of 485 nm and 520 nm, respectively. Then, 10 μL of peptide solutions was added and fluorescence readings were recorded for 40 minutes. […]

In brackets after ≈: the same amount, converted by molar mass. Where two headings read alike, the source gives them in different places. Where no end group is shown, it is not given here.

As for `CC[C@H](C)[C@H](NC(=O)[C@H](CCCCN)NC(=O)[C@H](CCC(=O)O)NC(=O)[C@H](CCCCN)NC(=O)[C@H](CO)NC(=O)[C@H](CCCCN)NC(=O)[C@H](CCCNC(=N)N)NC(=O)[C@H](Cc1ccccc1)NC(=O)[C@H](Cc1ccccc1)NC(=O)[C@H](CC(=O)O)NC(=O)CNC(=O)[C@H](CC(C)C)NC(=O)[C@@H](N)CC(C)C)C(=O)NCC(=O)N[C@@H](CCCCN)C(=O)N[C@@H](CCC(=O)O)C(=O)N[C@@H](Cc1ccccc1)C(=O)N[C@@H](CCCCN)C(=O)N[C@@H](CCCNC(=N)N)C(=O)N[C@H](C(=O)N[C@H](C(=O)N[C@@H](CCC(N)=O)C(=O)N[C@@H](CCCNC(=N)N)C(=O)N[C@H](C(=O)N[C@@H](CCCCN)C(=O)N[C@@H](CC(=O)O)C(=O)N[C@@H](Cc1ccccc1)C(=O)N[C@@H](CC(C)C)C(=O)N[C@@H](CCCNC(=N)N)C(=O)N[C@@H](CC(N)=O)C(=O)N[C@@H](CC(C)C)C(=O)N[C@H](C(=O)N1CCC[C@H]1C(=O)N[C@@H](CCCNC(=N)N)C(=O)N[C@H](C(=O)N[C@@H](CCC(=O)O)C(=O)N[C@@H](CO)C(=O)O)[C@@H](C)O)C(C)C)[C@@H](C)CC)C(C)C)[C@@H](C)CC` [LL-37], the MIC in test [1] (DMEM, read-out: Antimicrobial activity (MIC)) was ≤4 µM; in test [1] (Human serum 5%, read-out: Antimicrobial activity (MIC)) it was >32 µM; in test [1] (Human serum 10%, read-out: Antimicrobial activity (MIC)) it was >32 µM; in test [1] (MHB, Table 8, read-out: Antimicrobial activity (MIC) S. aureus USA300), >32 µM; in test [1] (NaCl (150 mM), read-out: Antimicrobial activity (MIC)), >32 µM; in test [1] (RPMI 1640, read-out: Antimicrobial activity (MIC)) it was ≤4 µM. Also, the MIC in test [1] (pH 6.21, read-out: Antimicrobial activity (MIC)) is reported as >32 µM; in test [1] (pH 7.22, read-out: Antimicrobial activity (MIC)) it was >32 µM. Moreover, the “Antimicrobial activity (MIC)” value in test [1] (LB 12.5%) is >32 µM; in test [1] (LB 25%), >32 µM; in test [1] (LB 50%) it was >32 µM; in test [1] (LB 100%) it was >32 µM; in test [1] (MHB 50%), 32 µM; in test [1] (MHB 100%), “did not display any activity”. The “Antimicrobial activity (MIC)” value in test [1] (TSB 12.5%), in test [1] (TSB 25%), in test [1] (TSB 50%) and in test [1] (TSB 100%) was >32 µM each time. Besides, the membrane permeabilization entry in test [2] (Example 2, TSB, 1-32 μM) is recorded as “failed to do so”. Also, the membrane depolarization entry in test [3] (Example 2, PBS with glucose) is “most powerful in membrane depolarization”.
In the case of `CCCCCCCCCC(=O)N[C@@H](Cc1c[nH]c2ccccc12)C(=O)N[C@H](CC(N)=O)C(=O)N[C@@H](CC(=O)O)C(=O)N[C@@H]1C(=O)NCC(=O)N[C@@H](CCCN)C(=O)N[C@@H](CC(=O)O)C(=O)N[C@H](C)C(=O)N[C@@H](CC(=O)O)C(=O)NCC(=O)N[C@H](CO)C(=O)N[C@@H]([C@H](C)CC(=O)O)C(=O)N[C@@H](CC(=O)c2ccccc2N)C(=O)O[C@@H]1C` [Daptomycin], the MIC is 1 µM (≈ 1.62 µg/mL) in test [1] (Staphylococcus aureus, MRSA / USA300, MRSA in MHB, 10% serum, read-out: Antimicrobial activity (MIC)); 1 µM (≈ 1.62 µg/mL) in test [1] (Staphylococcus aureus, MRSA / USA300, MRSA in MHB, 20% serum, read-out: Antimicrobial activity (MIC)); 1 µM (≈ 1.62 µg/mL) in test [1] (Staphylococcus aureus, MRSA / USA300, MRSA in MHB, NaCl (150 mM), read-out: Antimicrobial activity (MIC)); 1 µM (≈ 1.62 µg/mL) in test [1] (Staphylococcus aureus, MRSA / USA300, pH 6.3, MRSA in MHB, pH 6.3, read-out: Antimicrobial activity (MIC)); 1 µM (≈ 1.62 µg/mL) in test [1] (Staphylococcus aureus, MRSA / USA300, pH 7.2, MRSA in MHB, pH 7.2, read-out: Antimicrobial activity (MIC)); 0.5 to 1 µM (≈ 0.81 to 1.62 µg/mL) in test [1] (Staphylococcus aureus, USA300, Human serum 5%, read-out: Antimicrobial activity (MIC)). For the same compound, the MIC in test [1] (Staphylococcus aureus, USA300, Human serum 10%, read-out: Antimicrobial activity (MIC)) is 0.5 to 1 µM (≈ 0.81 to 1.62 µg/mL); in test [1] (Staphylococcus aureus, USA300, MHB, Table 8, read-out: Antimicrobial activity (MIC) S. aureus USA300), 0.5 to 1 µM (≈ 0.81 to 1.62 µg/mL); in test [1] (Staphylococcus aureus, USA300, NaCl (150 mM), read-out: Antimicrobial activity (MIC)), 0.5 µM (≈ 0.81 µg/mL); in test [1] (Staphylococcus aureus, USA300, pH 6.21, pH 6.21, read-out: Antimicrobial activity (MIC)), 0.5 to 1 µM (≈ 0.81 to 1.62 µg/mL); in test [1] (Staphylococcus aureus, USA300, pH 7.22, pH 7.22, read-out: Antimicrobial activity (MIC)), 0.5 µM (≈ 0.81 µg/mL); in test [1] (Staphylococcus aureus, USA300, pH 8.13, pH 8.13, read-out: Antimicrobial activity (MIC)), 0.5 µM (≈ 0.81 µg/mL). Also, in test [2] (Example 1, 1×MIC), the membrane permeabilization result was “membrane permeabilization after a delay”.
Turning to RRWWRWWR-NH2 [W543], the “change of MIC / activity” value in test [1] (MRSA in MHB, 10% human serum) is “eightfold”. The “effect on MIC” value in test [1] (MRSA in MHB, addition of 150 mM NaCl) was “did not alter the MIC”. In addition, in test [1] (MRSA in MHB, decrease of pH from 7.2 to 6.3), the “increase of MIC” value is recorded as “twofold”. In test [1] (USA300), the “Activity (MIC) S. aureus” value was in the range of 4 to 8 µM and the “Antimicrobial activity (MIC)” value amounted to 64 µM. In test [1] (USA300, pH 6.3), the “Antimicrobial activity (MIC)” value is 16 µM. In addition, the “concentration with no growth” value in test [1] (without protease) turned out to be 8 µM. For the same compound, the membrane permeabilization entry in test [2] (Example 1, 1×MIC) is “clear fluorescence increase”. Moreover, the membrane depolarization entry in test [3] (Example 1, highest concentration tested) is “did not show a clear effect”.
